# Values joined by “and” are separate entries in the source; they are usually repeats but may differ in a detail not shown here. Equal values may be shown once.
# System: 699152-130-R-J1-PDC complex spheroid viability
# Test: Anticancer human tumor 699152-130-R-J1-PDC patient-derived pancreatic carcinoma cell line growth inhibition [POLQ]
# Conditions: for viability, T/C: stronger effect = lower value
# Description: Multicellular complex tumor spheroid response to Polymerase (POL) inhibitors (novobiocin, ART-558, RP6685) in combination with a variety of drugs and investigational agents in selected tumor cell lines
# The POL inhibitors (novobiocin, ART-558, and RP6685) were evaluated both individually and in combination with standard of care and investigational anticancer small molecules within a complex spheroid model of solid tumors. . Complex spheroids include a stromal component modeled by human endothelial cells (HUVEC) and fibroblasts modeled by human mesenchymal stem cells (MSCs). The concentration ranges selected for each drug and investigational agent were based upon clinically achievable concentrations if the clinical Cmax of the agent was known.
# Compounds. The drugs and investigational agents: novobiocin (NSC847541), ART-558 (NSC835418), RP-6685 (NSC848927), peposertib (NSC802822), ceralasertib (NSC780249), elimusertib (NSC800525), camonsertib (NSC841442), AZD-1390 (NSC803789), olaparib (NSC753686), talazoparib (NSC767125), rucaparib (NSC756644), sotorasib (NSC818433), MRTX-1133 (NSC836407), SN-38 (NSC673596), topotecan (NSC609699), epotoside (NSC141540), doxorubicin (NSC123127), gemcitabine (NSC613327), 5-fluorouracil (NSC19893), paclitaxel (NSC125973), vemurafenib (NSC761431), MSA-2 (NSC828583), SN-011 (NSC837082), adavosertib (NSC754352), prexasertib (NSC758257), carboplatin (NSC241240) and oxaliplatin (NSC266046), were obtained from the National Cancer Institute (NCI) Developmental Therapeutics Program Chemical Repository (21). The FDA-approved anticancer drug set is available from the Developmental Therapeutics Program at https://dtp.cancer.gov/organization/dscb/obtaining/. […] The stock solutions were prepared in dimethyl sulfoxide (DMSO, Sigma-Aldrich, St. Louis, MO, cat. D2650), except for the platinum compounds which were prepared in saline (Quality Biological, Gaithersburg, MD, cat. 114-055-101), at 800-fold the tested concentration and stored at -70 degrees C prior to their use. All drugs and investigational agents were tested over a range starting from a high concentration at or near the clinical Cmax and decreasing in half-log increments. If the clinical Cmax for an agent had not been determined, the highest concentration tested was 10 microM, except for SN-38, which was tested at a high concentration of 1 microM.
# Cell Culture. All cells were maintained in an incubator at 37 degrees C and 5% CO2 with 95% humidity. The PDC lines were cultured according to standard operating procedures established by the NCI PDMR (https://pdmr.cancer.gov). Table 3 of the manuscript, lists the cell lines along with the number of the three cell types plated to form the mct-spheroids and media for tumor cell growth. After thawing, all PDC lines, except 997537-175-T-J1-PDC and 415267-285-R-J2-PDC, were cultured in Matrigel-coated flasks prepared with a working solution of 1X Ham's F-12 nutrient mix, without supplementation (Thermo Fisher Scientific, cat. 11765054), 100 U/mL penicillin-streptomycin (Thermo Fisher Scientific, cat. 15140122), and 2.5% Matrigel (Corning Inc., Corning, NY, cat. 354248) for the first three passages. The two PDC lines 997537-175-T-J1-PDC and 415267-285-R-J2-PDC were cultured on uncoated flasks. The 857933-349-R-J2-PDC line was cultured in 6C/Colon 1B media containing advanced DMEM/F-12 (Thermo Fisher Scientific, cat. 12634028), 10 mM HEPES (Thermo Fisher Scientific, cat. 15630080), 1X GlutaMAX supplement (Thermo Fisher Scientific, cat. 35050061), 0.1 mg/mL primocin (InvivoGen, San Diego, CA, cat. ant-pm-2), 10% defined fetal bovine serum, heat inactivated (HyClone Laboratories Inc., Logan, UT, cat. SH30070.03HI), 50% L-WRN conditioned media (ATCC, cat. CRL-3276), 1.25 mM N-Acetyl-L-cysteine (Sigma-Aldrich, cat. A9165), 10 mM nicotinamide (Sigma-Aldrich, cat. N0636), 1X B-27 supplement (Thermo Fisher Scientific, cat. 17504044), 1X N-2 supplement (Thermo Fisher Scientific, cat. […]
# [1] = curve of first compound, second compound 0.0316 µM
# [2] = curve of first compound, second compound 0.1 µM
# [3] = curve of first compound, second compound 0.316 µM
# [4] = curve of first compound, second compound 1 µM
# [5] = curve of first compound, second compound 3.16 µM
# [6] = curve of first compound, second compound 10 µM
# [7] = second compound 0.0316 µM, first compound 0.0316 µM
# [8] = second compound 0.0316 µM, first compound 0.1 µM
# [9] = second compound 0.0316 µM, first compound 0.316 µM
# [10] = second compound 0.0316 µM, first compound 1 µM
# [11] = second compound 0.0316 µM, first compound 3.16 µM
# [12] = second compound 0.0316 µM, first compound 10 µM
# [13] = second compound 0.1 µM, first compound 0.0316 µM
# [14] = second compound 0.1 µM, first compound 0.1 µM
# [15] = second compound 0.1 µM, first compound 0.316 µM
# [16] = second compound 0.1 µM, first compound 1 µM
# [17] = second compound 0.1 µM, first compound 3.16 µM
# [18] = second compound 0.1 µM, first compound 10 µM
# [19] = second compound 0.316 µM, first compound 0.0316 µM
# [20] = second compound 0.316 µM, first compound 0.1 µM
# [21] = second compound 0.316 µM, first compound 0.316 µM
# [22] = second compound 0.316 µM, first compound 1 µM
# [23] = second compound 0.316 µM, first compound 3.16 µM
# [24] = second compound 0.316 µM, first compound 10 µM
# [25] = second compound 1 µM, first compound 0.0316 µM
# [26] = second compound 1 µM, first compound 0.1 µM
# [27] = second compound 1 µM, first compound 0.316 µM
# [28] = second compound 1 µM, first compound 1 µM
# [29] = second compound 1 µM, first compound 3.16 µM
# [30] = second compound 1 µM, first compound 10 µM
# [31] = second compound 3.16 µM, first compound 0.0316 µM
# [32] = second compound 3.16 µM, first compound 0.1 µM
# [33] = second compound 3.16 µM, first compound 0.316 µM
# [34] = second compound 3.16 µM, first compound 1 µM
# [35] = second compound 3.16 µM, first compound 3.16 µM
# [36] = second compound 3.16 µM, first compound 10 µM
# [37] = second compound 10 µM, first compound 0.0316 µM
# [38] = second compound 10 µM, first compound 0.1 µM
# [39] = second compound 10 µM, first compound 0.316 µM
# [40] = second compound 10 µM, first compound 1 µM
# [41] = second compound 10 µM, first compound 3.16 µM
# [42] = second compound 10 µM, first compound 10 µM
# 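Also: spheroids exposed to agents for 7 days before viability reading.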
# 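For viability, T/C in this document: percent of DMSO vehicle control viability so 100% = vehicle and 0% = no viable signal.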
smiles,measurement,setting,value
O=C(c1cc(Cc2n[nH]c(=O)c3ccccc23)ccc1F)N1CCN(C(=O)C2CC2)CC1 + Nc1ccc(C#CCN(C(=O)Cc2ncc(C(F)(F)F)cc2C(F)(F)F)c2ccc(F)cc2)nn1,IC50,[1],> 10 µM
same,IC50,[2],> 10 µM
same,IC50,[3],> 10 µM
same,IC50,[4],> 10 µM
same,IC50,[5],> 10 µM
same,IC50,[6],> 10 µM
same,"viability, T/C",[7],88.9%
same,"viability, T/C",[8],99.8%
same,"viability, T/C",[9],81.6%
same,"viability, T/C",[10],109%
same,"viability, T/C",[11],85.3%
same,"viability, T/C",[12],93.2%
same,"viability, T/C",[13],95%
same,"viability, T/C",[14],110%
same,"viability, T/C",[15],97.8%
same,"viability, T/C",[16],95.4%
same,"viability, T/C",[17],99.6%
same,"viability, T/C",[18],82.3%
same,"viability, T/C",[19],100%
same,"viability, T/C",[20],114%
same,"viability, T/C",[21],101%
same,"viability, T/C",[22],92.8%
same,"viability, T/C",[23],96.3%
same,"viability, T/C",[24],85.3%
same,"viability, T/C",[25],105%
same,"viability, T/C",[26],99.2%
same,"viability, T/C",[27],98.5%
same,"viability, T/C",[28],112%
same,"viability, T/C",[29],86.7%
same,"viability, T/C",[30],77.5%
same,"viability, T/C",[31],108%
same,"viability, T/C",[32],113%
same,"viability, T/C",[33],114%
same,"viability, T/C",[34],98.6%
same,"viability, T/C",[35],88%
same,"viability, T/C",[36],81.8%
same,"viability, T/C",[37],103%
same,"viability, T/C",[38],107%
same,"viability, T/C",[39],108%
same,"viability, T/C",[40],107%
same,"viability, T/C",[41],113%
same,"viability, T/C",[42],97.8%
CCCS(=O)(=O)Nc1ccc(F)c(C(=O)c2c[nH]c3ncc(-c4ccc(Cl)cc4)cc23)c1F + Cc1cccc(N(C)C(=O)C2C(O)CCN2c2nc(C)cc(C(F)(F)F)c2C#N)c1,IC50,[1],8.18 µM
same,IC50,[2],8.55 µM
same,IC50,[3],8.18 µM
same,IC50,[4],8.6 µM
same,IC50,[5],8.56 µM
same,IC50,[6],8.17 µM
same,"viability, T/C",[7],110%
same,"viability, T/C",[8],101%
same,"viability, T/C",[9],120%
same,"viability, T/C",[10],162%
same,"viability, T/C",[11],175%
same,"viability, T/C",[12],32.2%
same,"viability, T/C",[13],105%
same,"viability, T/C",[14],103%
same,"viability, T/C",[15],126%
same,"viability, T/C",[16],143%
same,"viability, T/C",[17],199%
same,"viability, T/C",[18],36.5%
same,"viability, T/C",[19],103%
same,"viability, T/C",[20],99.5%
same,"viability, T/C",[21],125%
same,"viability, T/C",[22],159%
same,"viability, T/C",[23],195%
same,"viability, T/C",[24],31.6%
same,"viability, T/C",[25],109%
same,"viability, T/C",[26],112%
same,"viability, T/C",[27],141%
same,"viability, T/C",[28],152%
same,"viability, T/C",[29],172%
same,"viability, T/C",[30],36.6%
same,"viability, T/C",[31],124%
same,"viability, T/C",[32],112%
same,"viability, T/C",[33],118%
same,"viability, T/C",[34],140%
same,"viability, T/C",[35],181%
same,"viability, T/C",[36],36.5%
same,"viability, T/C",[37],117%
same,"viability, T/C",[38],103%
same,"viability, T/C",[39],134%
same,"viability, T/C",[40],146%
same,"viability, T/C",[41],175%
same,"viability, T/C",[42],31.7%
O=c1[nH]cc(F)c(=O)[nH]1,"viability, T/C",compound 0.0316 µM,91.8% and 111% and 102%
same,"viability, T/C",compound 0.1 µM,130% and 91.7% and 100%
same,"viability, T/C",compound 0.316 µM,96.3% and 108% and 117%
same,"viability, T/C",compound 1 µM,101% and 114% and 94%
same,"viability, T/C",compound 3.16 µM,108% and 92.4% and 91%
same,"viability, T/C",compound 10 µM,70.4% and 70.2% and 62.4%
same,IC50,curve of compound,> 10 µM
CC1COCCN1c1cc(C2(O)CC3CCC(C2)O3)c2cnn(-c3ccn[nH]3)c2n1 (stereo not given),"viability, T/C",compound 0.0316 µM,85.2% and 93.5% and 88.1%
same,"viability, T/C",compound 0.1 µM,80.7% and 83.5% and 80%
same,"viability, T/C",compound 0.316 µM,65.9% and 63.9% and 67.3%
same,"viability, T/C",compound 1 µM,56% and 53.3% and 57.5%
same,"viability, T/C",compound 3.16 µM,47.1% and 48.7% and 44.4%
same,"viability, T/C",compound 10 µM,35.8% and 33.2% and 36.5%
same,IC50,curve of compound,1.99 µM and 1.72 µM and 1.94 µM
COc1cccc2c1C(=O)c1c(O)c3c(c(O)c1C2=O)CC(O)(C(=O)CO)CC3OC1CC(N)C(O)C(C)O1 (stereo not given) + Nc1ccc(C#CCN(C(=O)Cc2ncc(C(F)(F)F)cc2C(F)(F)F)c2ccc(F)cc2)nn1,IC50,[1],0.353 µM
same,IC50,[2],0.409 µM
same,IC50,[3],0.377 µM
same,IC50,[4],0.205 µM
same,IC50,[5],0.263 µM
same,IC50,[6],0.419 µM
same,"viability, T/C",[7],78%
same,"viability, T/C",[8],61.9%
same,"viability, T/C",[9],51.9%
same,"viability, T/C",[10],36.6%
same,"viability, T/C",[11],2.41%
same,"viability, T/C",[12],9.62%
same,"viability, T/C",[13],76.7%
same,"viability, T/C",[14],69.8%
same,"viability, T/C",[15],51.9%
same,"viability, T/C",[16],37.5%
same,"viability, T/C",[17],3%
same,"viability, T/C",[18],7.86%
same,"viability, T/C",[19],78.9%
same,"viability, T/C",[20],73.3%
same,"viability, T/C",[21],49.7%
same,"viability, T/C",[22],35.7%
same,"viability, T/C",[23],5.24%
same,"viability, T/C",[24],9.53%
same,"viability, T/C",[25],85%
same,"viability, T/C",[26],57.9%
same,"viability, T/C",[27],46.7%
same,"viability, T/C",[28],28.6%
same,"viability, T/C",[29],1.69%
same,"viability, T/C",[30],12.1%
same,"viability, T/C",[31],85.2%
same,"viability, T/C",[32],61.8%
same,"viability, T/C",[33],51.2%
same,"viability, T/C",[34],28.4%
same,"viability, T/C",[35],2.48%
same,"viability, T/C",[36],10.9%
same,"viability, T/C",[37],80.6%
same,"viability, T/C",[38],72%
same,"viability, T/C",[39],56.1%
same,"viability, T/C",[40],31.9%
same,"viability, T/C",[41],3.65%
same,"viability, T/C",[42],10.6%

# — PubChem BioAssay AID1963835 (Molecular Pharmacology Branch, DTP, NCI, 2024)
